Measurements taken from US20210236476A1, “METHODS OF TREATING CANCER WITH SMALL MOLECULE PD-L1 INHIBITORS” (CHEMOCENTRYX, INC., priority 2018, published 2021).

biological target: T1, human PD-L1 / human PD-1 interaction (Homo sapiens, UniProt Q9NZQ7); test: ELISA of PD-1/PD-L1 interaction; format: binding
T1 construct: purchased R&D (PD-L1); ACRO Biosystems (PD-1, biotin)
Summary of the method: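 Plates coated with 1 μg/mL human PD-L1 and blocked with BSA; serially diluted (1:5) compounds plus biotinylated human PD-1 (0.3 μg/mL) incubated 1 h at 37° C. Bound PD-1 detected with streptavidin-HRP/TMB, absorbance at 450 nm.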

T1 sequence (Q9NZQ7 19-239 limits assumed): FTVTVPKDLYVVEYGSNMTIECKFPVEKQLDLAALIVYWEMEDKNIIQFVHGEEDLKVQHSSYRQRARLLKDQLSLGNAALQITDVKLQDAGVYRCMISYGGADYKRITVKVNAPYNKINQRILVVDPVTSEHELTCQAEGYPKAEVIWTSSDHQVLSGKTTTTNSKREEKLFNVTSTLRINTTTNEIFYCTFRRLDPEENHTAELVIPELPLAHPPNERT

IC50	SMILES
< 5 nM	N#Cc1cncc(COc2cc(O[C@H]3CCc4c(-c5cccc(OCCCN6CC(O)C6)c5Cl)cccc43)c(Cl)cc2CN[C@@H]2CCCC[C@@H]2O)c1
< 5 nM	N#Cc1cncc(COc2cc(O[C@H]3CCc4c(-c5cccc(OCCCN6CCC6)c5Cl)cccc43)c(Cl)cc2CN[C@@H]2CCCC[C@@H]2O)c1
< 5 nM	N#Cc1cncc(COc2cc(O[C@H]3CCc4c(-c5cccc(OCCCN6CC7(CC(F)C7)C6)c5Cl)cccc43)c(Cl)cc2CN[C@@H]2CCC[C@@H]2O)c1
< 5 nM	N#Cc1cncc(COc2cc(O[C@H]3CCc4c(-c5cccc(OCCCN6CCC6)c5Cl)cccc43)c(Cl)cc2CNC[C@@H]2CCC(=O)N2)c1
< 5 nM	N#Cc1cncc(COc2cc(O[C@H]3CCc4c(-c5cccc(OCCCN6CC7(CC(F)C7)C6)c5Cl)cccc43)c(Cl)cc2CNC[C@@H]2CCC(=O)N2)c1
< 5 nM	N#Cc1cncc(COc2cc(O[C@H]3CCc4c(-c5cccc(OCCCN6CCC(F)CC6)c5Cl)cccc43)c(Cl)cc2CN[C@H]2CCC[C@@H]2O)c1
< 5 nM	Cc1c(OCCCN2CCC(O)CC2)cccc1-c1cccc2c1CC[C@@H]2Oc1cc(OCc2cncc(C#N)c2)c(CN2CC[C@H](O)C2)cc1Cl
< 5 nM	N#Cc1cncc(COc2cc(O[C@H]3CCc4c(-c5cccc(OCCCN6CC(O)C6)c5Cl)cccc43)c(Cl)cc2CNC[C@@H]2CCC(=O)N2)c1
< 5 nM	CC1(F)CCN(CCCOc2cccc(-c3cccc4c3CC[C@@H]4Oc3cc(OCc4cncc(C#N)c4)c(CNC[C@@H]4CCC(=O)N4)cc3Cl)c2Cl)CC1
< 5 nM	N#Cc1cncc(COc2cc(O[C@H]3CCc4c(-c5cccc(OCCCN6CCC(O)CC6)c5Cl)cccc43)c(Cl)cc2CN[C@@H]2CCCC[C@@H]2O)c1
< 5 nM	CC(CO)(NCc1cc(Cl)c(O[C@H]2CCc3c(-c4cccc(OCCCN5CC6(CC(O)C6)C5)c4Cl)cccc32)cc1OCc1cncc(C#N)c1)C(=O)O (stereo partly shown)
< 5 nM	CC1(O)CCN(Cc2cc(Cl)c(O[C@H]3CCc4c(-c5cccc(OCCCN6CCC(F)CC6)c5Cl)cccc43)cc2OCc2cncc(C#N)c2)CC1
< 5 nM	N#Cc1cncc(COc2cc(O[C@H]3CCc4c(-c5cccc(OCCCN6CC7(CC(O)C7)C6)c5Cl)cccc43)c(Cl)cc2CN[C@@H]2CCCC[C@@H]2O)c1
< 5 nM	N#Cc1cncc(COc2cc(O[C@H]3CCc4c(-c5cccc(OCCCN6CCCCC6)c5Cl)cccc43)c(Cl)cc2CNC[C@@H]2CCC(=O)N2)c1
< 5 nM	CN1CCC(COc2cccc(-c3cccc4c3CC[C@@H]4Oc3cc(OCc4cncc(C#N)c4)c(CN[C@@H]4CCCC[C@@H]4O)cc3Cl)c2Cl)C1 (stereo partly shown)
< 5 nM	Cc1c(OCCCN2CCC(F)CC2)cccc1-c1cccc2c1CC[C@@H]2Oc1cc(OCc2cncc(C#N)c2)c(CNCCS(=O)(=O)O)cc1Cl
< 5 nM	Cc1c(OCCCN2CCC(O)CC2)cccc1-c1cccc2c1CC[C@@H]2Oc1cc(OCc2cncc(C#N)c2)c(CN[C@@H]2CCCC[C@@H]2O)cc1Cl
< 5 nM	N#Cc1cncc(COc2cc(O[C@H]3CCc4c(-c5cccc(OCCCN6CC7(C6)CC(F)(F)C7)c5Cl)cccc43)c(Cl)cc2CN[C@@H]2CCCC[C@@H]2O)c1

Second part, the molecule before the results:

SMILES	IC50
Cc1c(OCCCN2CCC(C)CC2)cccc1-c1cccc2c1CC[C@@H]2Oc1cc(OCc2cc(C#N)cc(C#N)c2)c(CNC[C@@H]2CCC(=O)N2)cc1Cl	< 5 nM
Cc1c(OCCCN2CCC2)cccc1-c1cccc2c1CC[C@@H]2Oc1cc(OCc2cc(C#N)cc(C#N)c2)c(CNC[C@H]2CCC(=O)N2)cc1Cl	< 5 nM
C[C@@](CO)(NCc1cc(Cl)c(O[C@@H]2c3cccc(-c4cccc(OCCCN5CC(F)C5)c4Cl)c3C[C@@H]2F)cc1OCc1cncc(C#N)c1)C(=O)O	< 5 nM
CCOc1cc(O[C@H]2CCc3c(-c4cccc(OCCCN5CCC5(C)C)c4C)cccc32)c(Cl)cc1CNCCO	< 5 nM
CC(CO)(NCc1cc(Cl)c(O[C@H]2CCc3c(-c4cccc(OCCCN5CC6(CC(F)C6)C5)c4Cl)cccc32)cc1OCc1cncc(C#N)c1)C(=O)O (stereo partly shown)	< 5 nM
Cc1c(OCCCN2CC[C@@H](O)[C@H](F)C2)cccc1-c1cccc2c1CC[C@@H]2Oc1cc(OCc2cncc(C#N)c2)c(CN[C@H](C(=O)O)[C@@H](C)O)cc1Cl	5 to 500 nM
Cc1c(OCCCN2CCC(O)CC2)cccc1-c1cccc2c1C[C@H](F)[C@@H]2Oc1cc(OCc2cncc(C#N)c2)c(CN[C@H](C(=O)O)[C@@H](C)O)cc1Cl	< 5 nM
Cc1c(OCCCN2CCC(F)CC2)cccc1-c1cccc2c1CC[C@@H]2Oc1cc(OCc2cc(C#N)cc(C#N)c2)c(CNC2CCNC(=O)C2)cc1Cl (stereo partly shown)	< 5 nM
C[C@@](CO)(NCc1cc(Cl)c(O[C@@H]2c3cccc(-c4cccc(OCCCN5CC(O)C5)c4Cl)c3C[C@@H]2F)cc1OCc1cncc(C#N)c1)C(=O)O	< 5 nM
Cc1c(OCCCN2CCCC2(C)C)cccc1-c1cccc2c1CC[C@@H]2Oc1cc(OCc2cc(C#N)cc(C#N)c2)c(CN[C@H]2CCC(=O)NC2)cc1Cl	< 5 nM
Cc1c(OCCCN2CCC(C)CC2)cccc1-c1cccc2c1CC[C@@H]2Oc1cc(OCc2cc(C#N)cc(C#N)c2)c(CN[C@H]2CCC(=O)NC2)cc1Cl	5 to 500 nM
C[C@@](CO)(NCc1cc(Cl)c(O[C@H]2CCc3c(-c4cccc(OCCCN5CC(O)C5)c4Cl)cccc32)cc1OCc1cncc(C#N)c1)C(=O)O [drawing 79]	< 5 nM
Cc1c(OCCCN2CCC(C)(F)CC2)cccc1-c1cccc2c1CC[C@@H]2Oc1cc(OCc2cncc(C#N)c2)c(CNC[C@@H]2CCC(=O)N2)cc1Cl	< 5 nM
